Measurements published in ChEMBL document CHEMBL4834425, “Spirombandakamine A3 and Cyclombandakamines A8 and A9, Polycyclic Naphthylisoquinoline Dimers, with Antiprotozoal Activity, from a Congolese Ancistrocladus Plant” (J Nat Prod, 2021).

How the values were obtained:
[1] = system: Trypanosoma brucei rhodesiense; experiment: Antitrypanosomal activity against bloodstream form of Trypanosoma brucei rhodesiense STIB900 assessed as inhibition of parasite growth incubated for 72 hrs by Alamar blue dye-based fluorometric analysis; format: functional, organism-based; conditions: STIB900, 72 h
[2] = system: L6; experiment: Cytotoxicity against rat L6 cells measured after 72 hrs by alamar blue dye based fluorometric analysis; format: cell-based; conditions: L6, 72 h
[3] = Selectivity index, ratio of IC50 for cytotoxicity against rat L6 cells to IC50 for antiplasmodial activity against Plasmodium falciparum NF54; format: toxicity, cell-based; conditions: read-out: Ratio IC50
[4] = system: Trypanosoma cruzi; experiment: Antitrypanosomal activity against amastigote form of Trypanosoma cruzi Tulahuen C4 expressing LacZ infected in rat L6 cells assessed as inhibition of parasite growth incubated for 96 hrs by CPRG/Nonidet reagent based […] analysis; format: functional, organism-based; conditions: Tulahuen C4, L6, 96 h
[5] = system: Leishmania donovani; experiment: Antileishmanial activity against Leishmania donovani MHOM/ET/67/L82 amastigotes assessed as inhibition of parasite growth measured after 72 hrs by alamar blue dye based fluorometric analysis; format: functional, organism-based; conditions: MHOM/ET/67/L82, 72 h
[6] = system: Plasmodium falciparum; experiment: Antiplasmodial activity against Plasmodium falciparum NF54 erythrocytic stages assessed as inhibition of parasite growth after 48 hrs by liquid scintillation counting method; format: functional, organism-based; conditions: NF54, 48 h

SMILES | IC50 [1] | IC50 [4] | IC50 [2] | selectivity ratio [3] | IC50 [5] | IC50 [6]
COc1ccc2c3c1C(=O)C[C@]1(C)Oc4c(cc(-c5c(O)cc(OC)c6c5C[C@H](C)N(C)[C@@H]6C)c5cc(C)cc(OC)c45)[C@]31Oc1cc(OC)c3c(c1-2)C[C@@H](C)N[C@@H]3C | 0.738 µM | 23.6 µM | 16.8 µM | 282 | 54.2 µM | 0.059 µM
O=C(Cn1ccnc1[N+](=O)[O-])NCc1ccccc1 [BENZNIDAZOLE] |  | 2.77 µM |  |  |  | 
CCCCCCCCCCCCCCCCOP(=O)([O-])OCC[N+](C)(C)C [MILTEFOSINE] |  |  |  |  | 0.39 µM | 

The next lines start with results.

IC50 [1] | IC50 [4] | SMILES | IC50 [2] | selectivity ratio [3] | IC50 [5] | IC50 [6]
4.08 µM | 35.6 µM | COc1ccc2c3c1C(=O)C[C@]1(C)Oc4c(cc(-c5c(O)cc(OC)c6c5C[C@H](C)N(C)[C@@H]6C)c5cc(C)cc(OC)c45)[C@]31Oc1cc(OC)c3c(c1-2)C[C@@H](C)N[C@H]3C | 19.3 µM | 127 | 27.9 µM | 0.152 µM
0.292 µM | 17.3 µM | COc1ccc2c3c1C(=O)C[C@]31c3cc(-c4c(O)cc(OC)c5c4C[C@@H](C)N[C@@H]5C)c4cc(C)cc(OC)c4c3O[C@]1(C)Oc1cc(OC)c3c(c1-2)C[C@@H](C)N(C)[C@@H]3C | 19.3 µM | 272 | > 100 µM | 0.071 µM
